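Briefly, cells in 96-well plates were exposed to five compound concentrations for 48 h, and endpoints were estimated by linear interpolation. GI50: concentration for 50% inhibition of growth.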 The source made the active and inactive calls. Rule as the data show it: active = GI50 up to about 1.1 µM and inactive = higher.
Tests used:
Test in all cases: NCI anticancer screen, dose series, 48 h
MCF7 = test system: MCF7
RPMI-8226 = test system: RPMI-8226
Malme-3M = test system: Malme-3M
T47D = test system: T47D
SK-OV-3 = test system: SK-OV-3
PC-3 = test system: PC-3
MDA-MB-231 = test system: MDA-MB-231
TK-10 = test system: TK-10
HOP-92 = test system: HOP-92
DU-145 = test system: DU-145
ACHN = test system: ACHN
Hs-578T = test system: Hs-578T
BT-549 = test system: BT-549
NCI/ADR-RES = test system: NCI/ADR-RES
MDA-MB-435 = test system: MDA-MB-435
RXF 393 = test system: RXF 393
HCC 2998 = test system: HCC 2998
NCI-H226 = test system: NCI-H226

Measured: GI50

Cc1c(OCc2ccccc2)c(=O)ccn1CCc1c[nH]c2ccccc12
inactive: MCF7 18.5 µM | RPMI-8226 31.9 µM | Malme-3M 22.1 µM | T47D 17.3 µM | SK-OV-3 > 100 µM | PC-3 30.9 µM | MDA-MB-231 34.1 µM | TK-10 40.6 µM | HOP-92 14.4 µM | DU-145 25.9 µM | ACHN > 100 µM | Hs-578T 27.2 µM | BT-549 44.6 µM | NCI/ADR-RES 86.7 µM | MDA-MB-435 20 µM

CCOC(=O)C[C@@H]1C2(C=C[C@@]13CO3)OCC(C)(C)CO2
inactive: MCF7 > 100 µM | RXF 393 > 100 µM | Malme-3M > 100 µM | T47D > 100 µM | SK-OV-3 > 100 µM | HCC 2998 > 100 µM | PC-3 > 100 µM | MDA-MB-231 > 100 µM | TK-10 > 100 µM | HOP-92 > 100 µM | NCI-H226 > 100 µM | DU-145 > 100 µM | Hs-578T > 100 µM | BT-549 > 100 µM | NCI/ADR-RES > 100 µM | MDA-MB-435 > 100 µM

CCSc1nc(N)c2c(-c3ccc(OC)c(OC)c3)c3c(nc2n1)CCCC3
inactive: MCF7 > 100 µM | RXF 393 > 100 µM | RPMI-8226 > 100 µM | Malme-3M > 100 µM | T47D > 100 µM | SK-OV-3 > 100 µM | PC-3 > 100 µM | MDA-MB-231 > 100 µM | TK-10 > 100 µM | DU-145 > 100 µM | ACHN > 100 µM | Hs-578T > 100 µM | BT-549 > 100 µM | NCI/ADR-RES > 100 µM | MDA-MB-435 > 100 µM

COC(=O)c1ccc(NCC2=C(Br)C(=O)C=CC2=O)cc1Cl
inactive: MCF7 17 µM | RPMI-8226 40.3 µM | Malme-3M 15.2 µM | T47D 20 µM | SK-OV-3 > 100 µM | HCC 2998 42.6 µM | PC-3 20 µM | MDA-MB-231 18.3 µM | TK-10 16.4 µM | HOP-92 15.6 µM | NCI-H226 74.8 µM | DU-145 22.8 µM | ACHN 17 µM | Hs-578T 21.9 µM | BT-549 13.1 µM | NCI/ADR-RES 23.2 µM | MDA-MB-435 19.2 µM

O=c1ccn(CC2(CO)CC(Cc3ccccc3)C2)c(=O)[nH]1 (configuration not stated)
inactive: MCF7 > 100 µM | RXF 393 > 100 µM | RPMI-8226 > 100 µM | Malme-3M > 100 µM | T47D > 100 µM | SK-OV-3 > 100 µM | HCC 2998 > 100 µM | PC-3 > 100 µM | MDA-MB-231 > 100 µM | TK-10 > 100 µM | NCI-H226 > 100 µM | DU-145 > 100 µM | ACHN > 100 µM | Hs-578T > 100 µM | BT-549 > 100 µM | NCI/ADR-RES > 100 µM | MDA-MB-435 > 100 µM

CN1CC=C(c2cccn2C)CC1
inactive: MCF7 > 100 µM | RXF 393 > 100 µM | RPMI-8226 > 100 µM | Malme-3M > 100 µM | T47D > 100 µM | SK-OV-3 > 100 µM | HCC 2998 > 100 µM | PC-3 > 100 µM | MDA-MB-231 > 100 µM | TK-10 > 100 µM | NCI-H226 > 100 µM | DU-145 > 100 µM | ACHN > 100 µM | Hs-578T > 100 µM | BT-549 > 100 µM | NCI/ADR-RES > 100 µM | MDA-MB-435 > 100 µM

CC(=O)O[C@H]1[C@@H]2OC(=O)[C@@](O)(CC3CCCO3)[C@@H]2CC(=O)[C@](C)(O)CC/C=C(\C)CCC[C@@H]1C (some centres not stated)
inactive: MCF7 24.7 µM | RXF 393 20 µM | RPMI-8226 26.2 µM | Malme-3M 41.2 µM | T47D 24.8 µM | HCC 2998 > 100 µM | PC-3 36.5 µM | MDA-MB-231 20.7 µM | TK-10 40.8 µM | HOP-92 28.2 µM | NCI-H226 15.6 µM | DU-145 37.8 µM | ACHN 38.8 µM | Hs-578T 63.4 µM | BT-549 26.2 µM | NCI/ADR-RES 57.9 µM | MDA-MB-435 31.7 µM

COC(=O)C1(c2ccc(N(C)C)cc2OC)CCCN(C(=O)Oc2ccccc2[N+](=O)[O-])CCc2c1[nH]c1ccccc21 (configuration not stated)
inactive: MCF7 > 100 µM | RXF 393 > 100 µM | Malme-3M > 100 µM | T47D > 100 µM | SK-OV-3 > 100 µM | HCC 2998 > 100 µM | PC-3 > 100 µM | MDA-MB-231 > 100 µM | TK-10 > 100 µM | HOP-92 > 100 µM | NCI-H226 > 100 µM | DU-145 > 100 µM | Hs-578T > 100 µM | BT-549 > 100 µM | NCI/ADR-RES > 100 µM | MDA-MB-435 > 100 µM

O=C(N/N=C/C=C/c1ccc([N+](=O)[O-])o1)c1ccc(Br)s1
inactive: MCF7 16.3 µM | RXF 393 15.6 µM | RPMI-8226 3.78 µM | Malme-3M 14.9 µM | T47D 28.4 µM | SK-OV-3 > 100 µM | PC-3 18.7 µM | MDA-MB-231 22.8 µM | TK-10 20 µM | HOP-92 10.8 µM | NCI-H226 22.2 µM | DU-145 30.3 µM | ACHN 16.3 µM | Hs-578T 6.73 µM | BT-549 25.3 µM | NCI/ADR-RES 25.1 µM | MDA-MB-435 25.4 µM
